These results are taken from ChEMBL document CHEMBL5244219, “Recent developments of quinolone-based derivatives and their activities against Escherichia coli” (Eur J Med Chem, 2018).

Converted amounts (≈) assume the structure as drawn.

Holding throughout (assay type): functional
Assay [1] deals with Escherichia coli. The experiment in a line: Antibacterial activity against Escherichia coli assessed as bacterial growth inhibition.
Assay [2] deals with Escherichia coli. The assay is described as follows: In vivo antibacterial activity against Escherichia coli infected in po dosed CD-1 mouse assessed as bacterial growth inhibition. The following applies: read-out: PD50.
The subject of assay [3] is Escherichia coli. The experiment in a line: In vivo antibacterial activity against Escherichia coli infected in sc dosed CD-1 mouse assessed as bacterial growth inhibition. The following applies: read-out: PD50.
Assay [4] relates to Escherichia coli. The experiment in a line: Potency index, ratio of chloromycin MIC to compound IC50 for antibacterial activity against Escherichia coli ATCC 700603.
Assay [5] has as its system Escherichia coli. The experiment in a line: Antibacterial activity against Escherichia coli ATCC 700603 assessed as bacterial growth inhibition by agar dilution method.
Assay [6] relates to Escherichia coli. The experiment in a line: Potency index, ratio of norfloxacin MIC to compound IC50 for antibacterial activity against Escherichia coli ATCC 700603.
For assay [7], the system named is Escherichia coli. The assay is described as follows: Potency index, ratio of ciprofloxacin MIC to compound IC50 for antibacterial activity against Escherichia coli ATCC 700603.
Assay [8] deals with Escherichia coli. The experiment in a line: Potency index, ratio of clinafloxacin MIC to compound IC50 for antibacterial activity against Escherichia coli ATCC 700603.
The subject of assay [9] is Escherichia coli. The assay is described as follows: Antibacterial activity against Escherichia coli ATCC 8739 assessed as bacterial growth inhibition by agar dilution method.

Turning to `CCn1cc(C(=O)O)c(=O)c2cc(F)c(N3CCC4(CCN(C)C4)C3)cc21` (centres undefined), the MIC in the assay on Escherichia coli [1] was found to be 0.006 µg/mL (≈ 0.0161 µM). Besides, the ED50 is 3.4 mg/kg in the assay with Escherichia coli [2] and 8.4 mg/kg in the assay on Escherichia coli [3].
With `Cc1nc(N2CCOCC2)c([N+](=O)[O-])n1CC(O)CNC1CCN(c2c(F)cc3c(=O)c(C(=O)O)cn(C4CC4)c3c2Cl)C1` (centres undefined), the Ratio with Escherichia coli [4], in the assay with Escherichia coli [6], in the assay on Escherichia coli [7] and in the assay with Escherichia coli [8] was 2 throughout. Also, in the assay on Escherichia coli [5], the MIC worked out at 0.5 µg/mL (≈ 0.789 µM).
With `CCn1cc(C(=O)O)c(=O)c2cc(F)c(N3CCN(CC(=O)c4ccoc4)CC3)cc21`, the MIC in the assay on Escherichia coli [9] was determined as 0.049 µg/mL (≈ 0.115 µM).
